A short description of data set [1]: Solubility in water and aqueous buffers (statement). The class given is physicochemical. The conditions noted are these: drospirenone: in water and aqueous buffers at various pH values.
For data set [2] the following is noted: human, in vivo, po. The method, then: 42 healthy women between 18 and 35 years of age were included in an open-label crossover study after their informed consent had been obtained. The aim of the study was to investigate the relative bioavailability of drospirenone and ethinylestradiol from a tablet formulation containing 3 mg drospirenone and 0.03 mg ethinylestradiol with reference to an oral suspension containing 6 mg of drospirenone and 0.06 mg ethinylestradiol per vial.
The bioavailability was determined using serum concentrations of each active agent as parameters.

Data set [3] in a line: Absolute bioavailability of drospirenone after oral administration. It is filed as in vivo, women.
Data set [4] in a line: Chemical stability under acid and alkaline conditions (statement). The class given is physicochemical.

In the case of `C#C[C@]1(O)CC[C@H]2[C@@H]3CCc4cc(O)ccc4[C@H]3CC[C@@]21C` [ethinylestradiol, 17α-ethinylestradiol], the solubility entry in data set [1] was “sparingly soluble”. The relative bioavailability in data set [2] worked out at 117%.
As a reminder, the bioavailability is the share of a dose that reaches the circulation, judged against a reference dose that is usually intravenous. A higher bioavailability goes with good availability. As for `C[C@]12CCC(=O)C=C1[C@@H]1C[C@@H]1[C@H]1[C@@H]3[C@@H]4C[C@@H]4[C@@]4(CCC(=O)O4)[C@@]3(C)CC[C@@H]12` [drospirenone, 6β,7β;15β,16β-dimethylene-3-oxo-17α-pregn-4-ene-21,17-carbolactone], in data set [1], the solubility result is recorded as “sparingly soluble”. The bioavailability in data set [3] (human, in vivo, oral administration of a microcrystalline suspension containing 3.13 mg drospirenone to 6 postmenopausal women) is 85%. The absolute bioavailability in data set [3] (oral administration of 2 mg drospirenone to 8 young healthy women) is recorded as 76%±13%. Besides, the relative bioavailability in data set [2] is reported as 107%. Further, the “stability under acid conditions” value in data set [4] (acid conditions) was “rearranged to an inactive isomer”. The “stability under alkaline conditions” value in data set [4] (alkaline conditions) is “hydrolysed”.

For the origin of these results see EP1598069A2, “Pharmaceutical combination of ethinylestradiol and drospirenone for use as a contraceptive” (Schering Aktiengesellschaft, priority 1999, dated 2001).
